Measurements published in the CheMixHub viscosity set.

Experiment: xn = mol fraction of the nth substance listed

NC1CCCCC1 + CC(C)(C)O
298.15 K, 101 kPa
Conditions | viscosity [mPa·s]
x1 = 0.0767 | 4.039
x1 = 0.1574 | 3.722
x1 = 0.2426 | 3.444
x1 = 0.3325 | 3.203
x1 = 0.4277 | 2.974
x1 = 0.5285 | 2.749
x1 = 0.6355 | 2.519
x1 = 0.7493 | 2.309
x1 = 0.8706 | 2.106

ClC=C(Cl)Cl + CCC(C)=O
viscosity [mPa·s], 101.33 kPa
Conditions | x1 = 0.1037 | x1 = 0.1997 | x1 = 0.3082 | x1 = 0.3915 | x1 = 0.4564 | x1 = 0.5979 | x1 = 0.7166 | x1 = 0.7989 | x1 = 0.891
298.15 K | – | 0.507 | – | – | 0.557 | 0.592 | 0.612 | 0.622 | 0.63
308.15 K | 0.447 | 0.467 | 0.491 | 0.506 | 0.518 | 0.543 | 0.559 | 0.564 | 0.575
318.15 K | 0.413 | 0.434 | 0.456 | 0.471 | 0.481 | 0.504 | 0.521 | 0.531 | 0.541

NC1CCCCC1 + CCCCO
viscosity [mPa·s], 101 kPa
Conditions | 293.15 K | 298.15 K | 303.15 K
x1 = 0.0515 | 2.935 | 2.587 | 2.27
x1 = 0.0767 | – | 2.558 | –
x1 = 0.1008 | 2.906 | 2.563 | 2.26
x1 = 0.147 | 2.891 | 2.549 | 2.24
x1 = 0.1574 | – | 2.555 | –
x1 = 0.2004 | 2.886 | 2.545 | 2.236
x1 = 0.2426 | – | 2.564 | –
x1 = 0.2992 | 2.897 | 2.547 | 2.233
x1 = 0.3325 | – | 2.574 | –
x1 = 0.4007 | 2.882 | 2.533 | 2.216
x1 = 0.4277 | – | 2.549 | –
x1 = 0.4475 | 2.868 | 2.523 | –
x1 = 0.4971 | 2.829 | 2.48 | 2.172
x1 = 0.5285 | – | 2.481 | –
x1 = 0.5421 | 2.784 | 2.442 | 2.142
x1 = 0.6078 | 2.701 | 2.387 | 2.095
x1 = 0.6355 | – | 2.379 | –
x1 = 0.7051 | 2.558 | 2.259 | 1.991
x1 = 0.7493 | – | 2.248 | –
x1 = 0.7941 | 2.419 | 2.142 | 1.893
x1 = 0.846 | 2.344 | 2.08 | 1.842
x1 = 0.8706 | – | 2.062 | –
x1 = 0.8879 | 2.295 | 2.039 | 1.81
x1 = 0.9384 | 2.216 | 1.973 | 1.751

O=C1CCCC1 + CCOC(=O)OCC
viscosity [mPa·s], 101 kPa
Conditions | x2 = 0.0876 | x2 = 0.1356 | x2 = 0.2458 | x2 = 0.3359 | x2 = 0.4228 | x2 = 0.5415 | x2 = 0.6475 | x2 = 0.7513 | x2 = 0.8664 | x2 = 0.9352
303.15 K | 0.958 | 0.937 | 0.891 | 0.859 | 0.83 | 0.797 | 0.77 | 0.747 | 0.725 | 0.713
308.15 K | 0.893 | 0.873 | 0.833 | 0.803 | 0.776 | 0.745 | 0.722 | 0.701 | 0.681 | 0.668
313.15 K | 0.835 | 0.819 | 0.783 | 0.757 | 0.733 | 0.705 | 0.683 | 0.664 | 0.644 | 0.632

CC(O)CO (centres undefined) + CN1CCCC1=O
101.33 kPa
Conditions | viscosity [mPa·s]
298.15 K, x2 = 0.03556 | 37.57
298.15 K, x2 = 0.09927 | 27.77
298.15 K, x2 = 0.195 | 18.05
298.15 K, x2 = 0.3013 | 11.78
298.15 K, x2 = 0.4032 | 8.207
298.15 K, x2 = 0.5025 | 5.965
298.15 K, x2 = 0.5936 | 4.558
298.15 K, x2 = 0.6967 | 3.452
298.15 K, x2 = 0.7994 | 2.682
298.15 K, x2 = 0.9144 | 2.042
298.15 K, x2 = 0.942 | 1.918
308.15 K, x2 = 0.05805 | 19.68
308.15 K, x2 = 0.1023 | 16.23
308.15 K, x2 = 0.1977 | 11.09
308.15 K, x2 = 0.2949 | 8.059
308.15 K, x2 = 0.407 | 5.667
308.15 K, x2 = 0.5051 | 4.3
308.15 K, x2 = 0.5903 | 3.441
308.15 K, x2 = 0.7066 | 2.66
308.15 K, x2 = 0.7992 | 2.172
308.15 K, x2 = 0.8842 | 1.81
308.15 K, x2 = 0.9388 | 1.623
318.15 K, x2 = 0.05313 | 12.45
318.15 K, x2 = 0.1009 | 10.51
318.15 K, x2 = 0.1905 | 7.664
318.15 K, x2 = 0.2992 | 5.559
318.15 K, x2 = 0.4025 | 4.21
318.15 K, x2 = 0.5017 | 3.319
318.15 K, x2 = 0.5999 | 2.697
318.15 K, x2 = 0.6946 | 2.204
318.15 K, x2 = 0.7967 | 1.805
318.15 K, x2 = 0.8916 | 1.507
318.15 K, x2 = 0.9393 | 1.378

[Al] + [Ga]
323 K, 101 kPa
Conditions | viscosity [mPa·s]
x1 = 0.021 | 1.529
x1 = 0.1 | 1.638

CC(C)Br + CCO
viscosity [mPa·s], 101 kPa
Conditions | x1 = 0.1 | x1 = 0.2 | x1 = 0.3 | x1 = 0.4 | x1 = 0.5 | x1 = 0.6 | x1 = 0.7 | x1 = 0.8 | x1 = 0.9
298.15 K | 0.9584 | 0.8399 | 0.7419 | 0.6681 | 0.601 | 0.546 | 0.505 | 0.4811 | 0.4782
303.15 K | 0.8856 | 0.7784 | 0.6899 | 0.6233 | 0.5616 | 0.5172 | 0.4819 | 0.4653 | 0.4647
308.15 K | 0.8081 | 0.711 | 0.6407 | 0.5773 | 0.5251 | 0.4875 | 0.4624 | 0.4474 | 0.4513
313.15 K | 0.7913 | 0.7008 | 0.6327 | 0.5668 | 0.5161 | 0.4739 | 0.4489 | 0.4352 | 0.4285
318.15 K | 0.7206 | 0.644 | 0.5803 | 0.5262 | 0.4829 | 0.4499 | 0.4268 | 0.4152 | 0.4137

O=C1CCCC1 + COC(=O)c1ccccc1
viscosity [mPa·s], 101 kPa
Conditions | x2 = 0.0744 | x2 = 0.1523 | x2 = 0.2344 | x2 = 0.3214 | x2 = 0.418 | x2 = 0.5133 | x2 = 0.6186 | x2 = 0.737 | x2 = 0.8638
303.15 K | 1.058 | 1.115 | 1.176 | 1.223 | 1.284 | 1.339 | 1.407 | 1.481 | 1.573
313.15 K | 0.91 | 0.946 | 0.984 | 1.026 | 1.071 | 1.116 | 1.164 | 1.218 | 1.285
